Data: patent US20090191173A1, “Induction Of Neurogenesis And Stem Cell Therapy In Combination With Copolymer 1” (priority 2004, published 2009)

What was measured:
[1] = system: neural progenitor cells (NPCs); assay: Oligodendrocyte differentiation (NG2, RIP, GalC) of NPCs co-cultured with activated microglia; type: cell-based, mouse; details: 5 days, presence of insulin
Procedure: (iii) Neural progenitor cell (NPC) culture. Coronal sections (2 mm thick) of tissue containing the subventricular zone of the lateral ventricle were obtained from the brains of adult C57B16/J mice. The tissue was minced and then incubated for digestion at 37° C., 5% CO2 for 45 min in Earle's balanced salt solution containing 0.94 mg/ml papain (Worthington, Lakewood, N.J.) and 0.18 mg/ml of L-cysteine and EDTA. After centrifugation at 110×g for 15 min at room temperature, the tissue was mechanically dissociated by pipette trituration. Cells obtained from single-cell suspensions were plated (3500 cells/cm^2) in 75-cm^2 Falcon tissue-culture flasks (BD Biosciences, Franklin Lakes, N.J.), in NPC-culturing medium [Dulbecco's modified Eagles's medium (DMEM)/F12 medium (Gibco/Invitrogen, Carlsbad, Calif.) containing 2 mM L-glutamine, 0.6% glucose, 9.6 μg/ml putrescine, 6.3 ng/ml progesterone, 5.2 ng/ml sodium selenite, 0.02 mg/ml insulin, 0.1 mg/ml transferrin, 2 μg/ml heparin (all from Sigma-Aldrich, Rehovot, Israel), fibroblast growth factor-2 (human recombinant, 20 ng/ml), and epidermal growth factor (human recombinant, 20 ng/ml; both from Peprotech, Rocky Hill, N.J.)]. Spheres were passaged every 4-6 days and replated as single cells. Green fluorescent protein (GFP)-expressing neural progenitor cells (NPCs) were obtained as previously described (Pluchino et al., 2003). […]

[2] = system: neural progenitor cells (NPCs); assay: Neuronal differentiation of GFP-expressing NPCs co-cultured with differently activated microglia; type: cell-based, mouse; details: absence of microglia, insulin 0.02 mg/ml
Procedure: (iii) Neural progenitor cell (NPC) culture. Coronal sections (2 mm thick) of tissue containing the subventricular zone of the lateral ventricle were obtained from the brains of adult C57B16/J mice. […] After centrifugation at 110×g for 15 min at room temperature, the tissue was mechanically dissociated by pipette trituration. […] Cell proliferation rates and cell survival in vitro were determined by staining with 5-bromo-2′-deoxyuridine (BrdU, 2.5 μM; Sigma-Aldrich, St. Louis). For quantification of live and dead cells, live cultures were stained with 1 μg/ml propidium iodide (Molecular Probes, Invitrogen, Carlsbad, Calif.) and 1 μg/ml Hoechst 33342 (Sigma-Aldrich, St. Louis), and cells were counted using Image-Pro (Media Cybernetics, Silver Spring, Md.), as described (Hsieh et al., 2004) (vi) Immunocytochemistry. […]

Substance: insulin: insulin added to differentiation medium (0.02 mg/ml)
- NG2+ cells [1]: did not affect the incidence of NG2^+ cells
- numbers of GFP+/β-III-tubulin+ cells in NPC cultures [2]: did not increase
